Results taken from the NIST ThermoML archive (doi:10.1016/j.jct.2016.07.008).

Experiment: xn = mol fraction of the nth substance listed
Settings: Liquid, Vibrating wire viscometry, x1 = 1

CCCCO [butan-1-ol] + CC(C)CC(C)(C)C
viscosity [mPa·s]
Settings	293.15 K	298.15 K	313.15 K	323.15 K	333.15 K	348.15 K	353.15 K
100 kPa	2.969	2.601	1.797	1.429	1.156	0.8579	0.7903
1000 kPa	3.001	2.622	1.813	1.44	1.172	0.8647	0.7943
5000 kPa	3.108	2.715	1.89	1.491	1.227	0.8956	0.8284
10000 kPa	3.244	2.834	1.967	1.556	1.29	0.9349	0.8637
20000 kPa	3.479	3.079	2.14	1.69	1.389	1.016	0.9473
30000 kPa	3.788	3.333	2.319	1.829	1.504	1.101	1.04
40000 kPa	4.078	3.599	2.48	1.975	1.624	1.189	1.102
50000 kPa	4.401	3.874	2.629	2.125	1.741	1.28	1.21
60000 kPa	4.74	4.16	2.852	2.281	1.867	1.375	1.295
70000 kPa	5.076	4.455	3.089	2.443	2.014	1.473	1.384
80000 kPa	5.438	4.761	3.247	2.61	2.137	1.575	1.473
100000 kPa	6.164	5.404	3.686	2.962	2.384	1.788	1.676
120000 kPa	6.979	6.087	4.192	3.335	2.633	2.015	1.857
140000 kPa	7.843	6.811	4.638	3.682	2.883	2.255	2.037

CCCCO [butan-1-ol] + Cc1ccc(C)c(C)c1
viscosity [mPa·s]
Settings	293.15 K	298.15 K	313.15 K	323.15 K	333.15 K	348.15 K	353.15 K
100 kPa	2.969	2.601	1.797	1.429	1.156	0.8579	0.7903
1000 kPa	3.001	2.622	1.813	1.44	1.172	0.8647	0.7943
5000 kPa	3.108	2.715	1.89	1.491	1.227	0.8956	0.8284
10000 kPa	3.244	2.834	1.967	1.556	1.29	0.9349	0.8637
20000 kPa	3.479	3.079	2.14	1.69	1.389	1.016	0.9473
30000 kPa	3.788	3.333	2.319	1.829	1.504	1.101	1.04
40000 kPa	4.078	3.599	2.48	1.975	1.624	1.189	1.102
50000 kPa	4.401	3.874	2.629	2.125	1.741	1.28	1.21
60000 kPa	4.74	4.16	2.852	2.281	1.867	1.375	1.295
70000 kPa	5.076	4.455	3.089	2.443	2.014	1.473	1.384
80000 kPa	5.438	4.761	3.247	2.61	2.137	1.575	1.473
100000 kPa	6.164	5.404	3.686	2.962	2.384	1.788	1.676
120000 kPa	6.979	6.087	4.192	3.335	2.633	2.015	1.857
140000 kPa	7.843	6.811	4.638	3.682	2.883	2.255	2.037
